Calls of active or inactive are those of the source. No cut-off for these calls is given here.
Key:
MV4-11 [1] = test: Antiproliferative activity against human MV4-11 cells; format: functional, cell-based
Ty-82 [2] = test: Induction of apoptosis in human Ty-82 cells for 48 hrs by annexin V-FITC based flow cytometric analysis; format: functional, cell-based; details: dose 0.1-10 nM
CAPAN-1 [3] = test: Induction of apoptosis in human CAPAN-1 cells assessed as increase in caspase 9 at 0.1 to 10 nM for 48 hrs […]; format: functional, cell-based; details: dose 0.1-10 nM
MV4-11 [4] = test: Antitumor activity against human MV4-11 cells xenografted in BALB/c mouse assessed as growth inhibition at 0.6 mg/kg, po qd 21 days relative to control; format: functional; details: MV4-11, 504 h, time 21 day, read-out: GI
Ty-82 [5] = test: Induction of apoptosis in human Ty-82 cells assessed as reduction of c-Myc mRNA level at 0.1 to 10 nM for 24 hrs by […]; format: functional, cell-based; details: dose 0.1-10 nM
CAPAN-1 [6] = test: Induction of apoptosis in human CAPAN-1 cells for 48 hrs by annexin V-FITC based flow cytometric analysis; format: functional, cell-based; details: dose 0.1-10 nM
Ty-82 [7] = test: Induction of apoptosis in human Ty-82 cells assessed as reduction of IDO1 mRNA level at 0.1 to 10 nM for 24 hrs by […]; format: functional, cell-based; details: dose 0.1-10 nM
Ty-82 [8] = test: Induction of apoptosis in human Ty-82 cells assessed as increase in caspase 7 at 0.1 to 10 nM for 48 hrs […]; format: functional, cell-based; details: dose 0.1-10 nM
CAPAN-1 [9] = test: Induction of apoptosis in human CAPAN-1 cells assessed as increase in caspase 7 at 0.1 to 10 nM for 48 hrs […]; format: functional, cell-based; details: dose 0.1-10 nM
Ty-82 [10] = test: Antitumor activity against human Ty-82 cells xenografted in BALB/c nude mouse assessed tumor growth inhibition treated at 0.5 mg/kg, po qd for 21 days relative to control; format: functional; details: TY82, 504 h, time 21 day, read-out: TGI
Ty-82 [11] = test: Induction of apoptosis in human Ty-82 cells assessed as increase in caspase 3 at 0.1 to 10 nM for 48 hrs […]; format: functional, cell-based; details: dose 0.1-10 nM
Ty-82 [12] = test: Induction of apoptosis in human Ty-82 cells assessed as increase in caspase 9 at 0.1 to 10 nM for 48 hrs […]; format: functional, cell-based; details: dose 0.1-10 nM
[13] = Toxicity in BALB/c mouse xenografted with human Ty-82 assessed as body weight loss treated at 0.25 to 0.5 mg/kg, po qd for 21 days; format: organism-based; details: in vivo, 504 h, dose 0.25-0.5 mg/kg, time 21 day
CAPAN-1 [14] = test: Induction of apoptosis in human CAPAN-1 cells assessed as increase in caspase 3 at 0.1 to 10 nM for 48 hrs […]; format: functional, cell-based; details: dose 0.1-10 nM
Ty-82 [15] = test: Induction of apoptosis in human Ty-82 cells assessed as increase in cleaved PARP at 0.1 to 10 nM for 48 hrs […]; format: functional, cell-based; details: dose 0.1-10 nM
[16] = Toxicity in BALB/c mouse xenografted with human Ty-82 assessed as death treated at 0.25 to 0.5 mg/kg, po qd for 21 days; format: organism-based; details: in vivo, 504 h, dose 0.25-0.5 mg/kg, time 21 day
CAPAN-1 [17] = test: Induction of apoptosis in human CAPAN-1 cells assessed as increased cleaved PARP at 0.1 to 10 nM for 48 hrs […]; format: functional, cell-based; details: dose 0.1-10 nM
[18] = Metabolic stability in dog liver microsomes assessed as clearance; format: ADME, Canis lupus familiaris, Microsome; details: read-out: CLH
[19] = Metabolic stability in dog liver microsomes assessed as half life; format: ADME, Canis lupus familiaris, Microsome
[20] = Metabolic stability in mouse liver microsomes assessed as half life; format: ADME, Microsome
[21] = Metabolic stability in human liver microsomes assessed as clearance; format: ADME, Microsome; details: read-out: CLH
[22] = Metabolic stability in mouse liver microsomes assessed as clearance; format: ADME, Microsome; details: read-out: CLH
[23] = Toxicity in BALB/c mouse xenografted with human MV4-11 cells assessed as body weight loss at 0.6 mg/kg, po qd 21 days; format: organism-based; details: in vivo, 504 h, time 21 day
Ty-82 [24] = test: Antiproliferative activity against human Ty-82 cells incubated for 72 hrs by sulforhodamine B based cell counting kit-8 assay; format: functional; details: TY82, 72 h
[25] = Metabolic stability in human liver microsomes assessed as half life; format: ADME, Microsome
MM1.S [26] = test: Antiproliferative activity against human MM1.S cells incubated for 72 hrs by sulforhodamine B based cell counting kit-8 assay; format: functional
[27] = AUClast in CD-1 mouse at 10 mg/kg, po; format: ADME, organism-based; parameters: dose 10 mg/kg, route po; details: in vivo
[28] = Observed MRT infinity in CD-1 mouse at 10 mg/kg, po; format: ADME, organism-based; details: in vivo
[29] = Tmax in CD-1 mouse at 10 mg/kg, po; format: ADME, organism-based; details: in vivo
[30] = Cmax in CD-1 mouse at 10 mg/kg, po; format: ADME, organism-based; parameters: dose 10 mg/kg, route po; details: in vivo
[31] = Toxicity in BALB/c mouse xenografted with human MM1.S assessed body weight loss treated at 3 mg/kg, po qd for 10 days; format: organism-based; details: in vivo, 240 h, time 10 day
[32] = Half life in CD-1 mouse at 10 mg/kg, po; format: ADME, organism-based; details: in vivo
[33] = Observed AUC infinity in CD-1 mouse at 10 mg/kg, po; format: ADME, organism-based; parameters: dose 10 mg/kg, route po; details: in vivo
MM1.S [34] = test: Antitumor activity against human MM1.S cells xenografted in BALB/c nude mouse assessed growth inhibition treated at 3 mg/kg, po qd for 10 days followed by dose adjustment to 1.5 mg/kg from day 11 to 21 due to body weight loss relative to control; format: functional; details: dose 1.5-3 mg/kg, time 21 day, at 1.5 to 3 mg/kg
MM1.S [35] = test: Antitumor activity against human MM1.S cells xenografted in BALB/c nude mouse assessed growth inhibition treated at 1.5 mg/kg, po qd for 10 days adjusted to qod from day 11 to 21 due to body weight loss relative to control; format: functional; details: 504 h, time 21 day, read-out: GI
MM1.S [36] = test: Antitumor activity against human MM1.S cells xenografted in BALB/c nude mouse assessed growth inhibition treated at 0.5 mg/kg, po qd for 21 days relative to control; format: functional; details: 504 h, time 21 day, read-out: GI
[37] = Toxicity in BALB/c mouse xenografted with human MM1.S assessed body weight loss treated at 1.5 mg/kg, po qd for 10 days; format: organism-based; details: in vivo, 240 h, time 10 day
[38] = target: Bromodomain-containing protein 4 (Homo sapiens, UniProt O60885); test: Inhibition of full length BRD4 (unknown origin) transfected in HEK293 cells incubated for 20 hrs measured by NanoBRET BRD4/Histone H3.3 interaction assay kit; format: cell-based

| SMILES | inhibition in vivo at 0.5 mg/kg (Ty-82 [10]) | Activity [13] | Activity [16] | microsomal CLint [18] | half-life [19] | half-life [20] | microsomal CLint [21] | microsomal CLint [22] | half-life [25] | AUC(0-t) [27] | MRT [28] | Tmax [29] | Cmax [30] | half-life [32] | AUC(0-inf) [33] | also measured |
| --- | --- | --- | --- | --- | --- | --- | --- | --- | --- | --- | --- | --- | --- | --- | --- | --- |
| Cc1sc2c(c1C)C(c1ccc(Cl)cc1)=NC(CC(=O)OC(C)(C)C)c1nnc(C)n1-2 (centres undefined) |  |  |  |  |  |  |  |  |  |  |  |  |  |  |  | IC50 (MV4-11 [1]): 72.2 nM |
| CCS(=O)(=O)Nc1ccc(Oc2ccc(F)cc2F)c(-c2cn(C)c(=O)c3[nH]ccc23)c1 [MIVEBRESIB] | 67.6% | Toxic | Non-Toxic |  |  |  |  |  |  |  |  |  |  |  |  | Activity (Ty-82 [2]): Dose-Dependent Effect; Activity (CAPAN-1 [3]): Active; inhibition in vivo at 0.6 mg/kg (MV4-11 [4]): 66.9%; Activity (Ty-82 [5]): Active; Activity (CAPAN-1 [6]): Dose-Dependent Effect; Activity (Ty-82 [7]): Active; Activity (Ty-82 [8]): Active; Activity (CAPAN-1 [9]): Active; Activity (Ty-82 [11]): Active; Activity (Ty-82 [12]): Active; Activity (CAPAN-1 [14]): Active; Activity (Ty-82 [15]): Active; Activity (CAPAN-1 [17]): Active |
| C[C@@H]1CN(C(=O)c2nc(-c3ccc4c(c3)N(C3CCC3)[C@H](C)C(=O)N4C)n(-c3cccc(Cl)c3)n2)[C@@H](C)CN1C(=O)c1nc(-c2ccc3c(c2)N(C2CCC2)[C@H](C)C(=O)N3C)n(-c2cccc(Cl)c2)n1 | 73.5% | Toxic | Non-Toxic | 1.6 µL/min/mg | 14.6 h | 3.72 h | 6 µL/min/mg | 6.2 µL/min/mg | 3.86 h |  |  |  |  |  |  | Activity (Ty-82 [2]): Dose-Dependent Effect; Activity (CAPAN-1 [3]): Active; inhibition in vivo at 0.6 mg/kg (MV4-11 [4]): 88.9%; Activity (Ty-82 [5]): Active; Activity [23]: Toxic; Activity (CAPAN-1 [6]): Dose-Dependent Effect; Activity (Ty-82 [7]): Active; Activity (Ty-82 [8]): Active; Activity (CAPAN-1 [9]): Active; IC50 (Ty-82 [24]): 0.05 nM; Activity (Ty-82 [11]): Active; Activity (Ty-82 [12]): Active; IC50 (MM1.S [26]): 0.07 nM; Activity (CAPAN-1 [14]): Active; Activity (Ty-82 [15]): Active; Activity (CAPAN-1 [17]): Active |
| Cc1ccc(-n2nc(C(=O)N3C[C@H](C)N(C(=O)c4nc(-c5ccc6c(c5)N(C5CCC5)[C@H](C)C(=O)N6C)n(-c5ccc(C)cc5)n4)C[C@H]3C)nc2-c2ccc3c(c2)N(C2CCC2)[C@H](C)C(=O)N3C)cc1 | 61% | Toxic | Non-Toxic | 0.7 µL/min/mg | 34.7 h | 9.48 h | 0.5 µL/min/mg | 2.4 µL/min/mg | 48.7 h |  |  |  |  |  |  | IC50 (Ty-82 [24]): 0.05 nM; IC50 (MM1.S [26]): 0.04 nM |
| Cc1ccc(-n2nc(C(=O)N3CCN(C(=O)c4nc(-c5ccc6c(c5)N(C5CCCC5)[C@H](C)C(=O)N6C)n(-c5ccc(C)cc5)n4)[C@H](C)C3)nc2-c2ccc3c(c2)N(C2CCCC2)[C@H](C)C(=O)N3C)cc1 |  |  |  |  |  |  |  |  |  | 4150 ng·h/mL | 4.85 h | 2 h | 823 ng/mL | 2.82 h | 4170 ng·h/mL | Activity [31]: Toxic; growth inhibition (GI) (MM1.S [34]): 78.6% |
| Cc1ccc(-n2nc(C(=O)N3C[C@H](C)N(C(=O)c4nc(-c5ccc6c(c5)N(C5CCCC5)[C@H](C)C(=O)N6C)n(-c5ccc(C)cc5)n4)C[C@H]3C)nc2-c2ccc3c(c2)N(C2CCCC2)[C@H](C)C(=O)N3C)cc1 |  |  |  |  |  |  |  |  |  | 4570 ng·h/mL | 3.82 h | 2.33 h | 1340 ng/mL | 0.19 h | 4620 ng·h/mL | inhibition in vivo at 1.5 mg/kg (MM1.S [35]): 91.5%; inhibition in vivo at 0.5 mg/kg (MM1.S [36]): 66.5%; Activity [37]: Toxic |
| Cc1sc2c(c1C)C(c1ccc(Cl)cc1)=N[C@@H](CC(=O)NCCOCCOCCOCCOCCOCCOCCOCCNC(=O)C[C@@H]1N=C(c3ccc(Cl)cc3)c3c(sc(C)c3C)-n3c(C)nnc31)c1nnc(C)n1-2 |  |  |  |  |  |  |  |  |  |  |  |  |  |  |  | IC50 (MV4-11 [1]): 0.17 nM |
| Cc1ccc(-n2nc(C(=O)N3C[C@H](C)N(C(=O)c4nc(-c5ccc6c(c5)N(C)[C@H](C)C(=O)N6C)n(-c5ccc(C)cc5)n4)C[C@H]3C)nc2-c2ccc3c(c2)N(C)[C@H](C)C(=O)N3C)cc1 |  |  |  | 7.6 µL/min/mg | 3.02 h | 1.84 h | 6.4 µL/min/mg | 12.6 µL/min/mg | 3.62 h |  |  |  |  |  |  |  |
| Cc1ccc(-n2nc(C(=O)N3CCN(C(=O)c4nc(-c5ccc6c(c5)N(C5CCCC5)[C@H](C)C(=O)N6C)n(-c5ccc(C)cc5)n4)CC3)nc2-c2ccc3c(c2)N(C2CCCC2)[C@H](C)C(=O)N3C)cc1 |  |  |  |  |  |  |  |  |  | 361 ng·h/mL | 1.69 h | 1 h | 238 ng/mL | 0.82 h | 372 ng·h/mL | IC50 [38]: 6.2 nM |
